What all share (type): cell-based
Common to all, as to settings: 7 days after inoculation

The subject of one test is Botrytis cinerea. Put plainly: M2 microtiterplate test, grey mold Botrytis cinerea (Botrci).
In a further test the test system is Septoria tritici. The test is described as follows: M4 microtiter test, leaf blotch on wheat caused by Septoria tritici (Septtr).
For a further test, the system named is Alternaria solani. Put plainly: M5 microtiter test, early blight caused by Alternaria solani (Alteso).
The subject of the next test is Pyricularia oryzae.
A further test has as its system Phytophthora infestans.
Another test has as its system Leptosphaeria nodorum. The test is described as follows: M6 microtiter test, wheat leaf spots caused by Leptosphaeria nodorum (Leptno).

In US10212934B2, “Pesticidal compositions” (BASF AGRO B.V., priority 2014, dated 2019) one finds Observed efficacy data, which are given here for six compounds.

Where two headings read alike, the source gives them in different places.

For the compound `Cc1cc(C(F)(F)F)nn1CC(=O)N1CCC(c2nc(C3=NOC(c4c(F)cccc4F)C3)cs2)CC1` (racemic) [Oxathiapiprolin (II-1), 1-(4-{4-[(5 RS)-5-(2,6-difluorophenyl)-4,5-dihydro-1,2-oxazol-3-yl]-1,3-thiazol-2-yl}-1-piperidyl)-2-[5-methyl-3-(trifluoromethyl)-1H-pyrazol-1-yl]ethanone], the Observed efficacy in the test on Botrytis cinerea (16 ppm) worked out at 4%; in the test with Botrytis cinerea (63 ppm), 23%.

Turning to `CC(O)(Cn1cncn1)c1ccc(Oc2ccc(Cl)cc2)cc1C(F)(F)F` (centres unmarked) [I-3, 2-[4-(4-chlorophenoxy)-2-(trifluoromethyl)phenyl]-1-(1,2,4-triazol-1-yl)propan-2-ol], the Observed efficacy in the test on Septoria tritici (0.00025 ppm) turned out to be 28%; in the test on Alternaria solani (0.001 ppm) it was 9%; with Pyricularia oryzae (0.25 ppm), 10%; with Botrytis cinerea (0.063 ppm), 42%; with Phytophthora infestans (0.063 ppm), 12%; in the test with Leptosphaeria nodorum (0.016 ppm), 35%.

`CNC(=O)Oc1cc(C)c(SC)c(C)c1` [Methiocarb (II-4), 4-methylthio-3,5-xylyl methylcarbamate]: the Observed efficacy with Septoria tritici (0.063 ppm) is listed as 6%; with Pyricularia oryzae (63 ppm), 36%; in the test with Phytophthora infestans (63 ppm) it was 51%.

`CC(c1ccc(C(F)(F)F)nc1)S(C)(=O)=NC#N` (centres unmarked) [Sulfoxaflor (II-3), [methyl(oxo){1-[6-(trifluoromethyl)-3-pyridyl]ethyl}-Λ^6-sulfanylidene]cyanamide] came in with an Observed efficacy with Leptosphaeria nodorum (16 ppm (commercial finished formulation diluted with water)) of 0%.

`CC(C)(C)C(O)C(Oc1ccc(Cl)cc1)n1cncn1` (centres unmarked) [Triadimenol (II-2), (1 RS,2 RS;1 RS,2 SR)-1-(4-chlorophenoxy)-3,3-dimethyl-1-(1H-1,2,4-triazol-1-yl)butan-2-ol] showed an Observed efficacy with Botrytis cinerea (4 ppm) of 39%.

As for `O=c1[c-](-c2cccc(C(F)(F)F)c2)c(=O)[n+](Cc2cncnc2)c2ccccn12` [Triflumezopyrim (II-7), 3,4-dihydro-2,4-dioxo-1-(pyrimidin-5-ylmethyl)-3-(α,α,α-trifluoro-m-tolyl)-2H-pyrido[1,2-a]pyrimidin-1-ium-3-ide], the Observed efficacy with Alternaria solani (0.25 ppm) was found to be 36%.
